Assay results published in patent US8399378B2, “Use of neonicotinoids in pest control” (Syngenta Crop Protection LLC, priority 1998, dated 2013).

Legend:
Format in all cases: in vivo
[1] = tested on: Spodoptera littoralis; experiment: Spray test on young cotton plants, action against Spodoptera littoralis larvae
[2] = tested on: Heliothis spp.; experiment: Maize plot spray test (KnockOut vs conventional maize), action against Heliothis spp.; settings: 6 days
Description: (§1) A plot (a) planted with maize cv. KnockOut® and an adjacent plot (b) of the same size which is planted with conventional maize, both showing natural infestation with Ostrinia nubilalis, Spodoptera spp. or Heliothis, are sprayed with an aqueous emulsion spray mixture comprising 200, 100, 50, 10, 5, 1 ppm of Ti-435. Immediately afterwards, plot (b) is treated with an emulsion spray mixture comprising 200, 100, 50, 10, 5, 1 ppm of the endotoxin expressed by KnockOut®. Evaluation takes place 6 days later. The percentage reduction in population (% action) is determined by comparing the number of dead pests on the plants of plot (a) with that on the plants of plot (b).
as §1, with “thiamethoxam.” for “Ti-435.”
as §1, with “imidacloprid.” for “Ti-435.”

[3] = tested on: Anthonomus grandis; experiment: Spray test on young cotton plants, action against Anthonomus grandis adults; settings: non-transgenic cotton treated with compound and conventional CryIIIA-toxin, each 100, 50, 10, 5, 1 ppm
[4] = tested on: Heliothis virescens; experiment: Spray test on young cotton plants, action against Heliothis virescens larvae; settings: non-transgenic cotton treated with compound and conventional CryIIIA-toxin, each 100, 50, 10, 5, 1 ppm
[5] = tested on: Diabrotica balteata; experiment: Maize seedling spray test, action against Diabrotica balteata; settings: 6 days
Description: A plot (a) planted with maize seedlings cv. KnockOut® and an adjacent plot (b) of the same size which is planted with conventional maize are sprayed with an aqueous emulsion of a spray mixture comprising 400 ppm thiamethoxam. Immediately afterwards, plot (b) is treated with an emulsion spray mixture comprising 400 ppm of the endotoxin expressed by KnockOut®. After the spray coating has dried on, the seedlings are populated with 10 Diabrotica balteata larvae in the second stage and transferred to a plastic container. The test is evaluated 6 days later. The percentage reduction in population (% action) is determined by comparing the number of dead pests on the plants of plot (a) with that on the plants of plot (b).

[6] = tested on: Nephotettix cincticeps; experiment: Rice plant pot test, action against Nephotettix cincticeps (systemic); settings: 6 days; for control (percentage reduction in population, % action): placed in aqueous emulsion with 400 ppm compound; for control level: pot (B) conventional rice plants
Description: Rice plants expressing the δ-endotoxin CryIa(b) are planted in a in pot (A) and conventional ice plants are planted in a pot (B). Pot (A) is placed in an aqueous emulsion containing 400 ppm thiamethoxam, whereas plot (B) is placed in a pot containing 400 ppm thiamethoxam and 400 ppm of the δ-endotoxin CryI(b). The plants are subsequently infected with Nephotettix cincticeps larvae of the second and third stage. The test is evaluated after 6 days.
(§2) The percentage reduction in population (% action) is determined by comparing the number of dead pests on the plants of pot (A) with that on the plants of pot (B).
Rice plants expressing the δ-endotoxin CryIa(c) are planted in a in pot (A) and conventional ice plants are planted in a pot (B). Pot (A) is placed in an aqueous emulsion containing 400 ppm thiamethoxam, whereas plot (B) is placed in a pot containing 400 ppm thiamethoxam and 400 ppm of the δ-endotoxin CryI(c). The plants are subsequently infected with Nephotettix cincticeps larvae of the second and third stage. The test is evaluated after 6 days.

[7] = tested on: Nilaparvata lugens; experiment: Rice plant pot test, action against Nilaparvata lugens (systemic); settings: 6 days; for control (percentage reduction in population, % action): placed in aqueous emulsion with 400 ppm compound; for control level: pot (B) conventional rice plants
Description: Rice plants expressing the δ-endotoxin CryIA(b) are planted in a in pot (A) and conventional rice plants are planted in a pot (B). Pot (A) is placed in an aqueous emulsion containing 400 ppm thiamethoxam, whereas plot (B) is place in a pot containing 400 ppm thiamethoxam and 400 ppm of the δ-endotoxin CryIA(b). The plants are subsequently infected with Nilaparvata lugens larvae of the second and third stage. The test is evaluated after 6 days.
as §2
Rice plants expressing the δ-endotoxin CryIA(c) are planted in a in pot (A) and conventional rice plants are planted in a pot (B). Pot (A) is placed in an aqueous emulsion containing 400 ppm thiamethoxam, whereas plot (B) is place in a pot containing 400 ppm thiamethoxam and 400 ppm of the δ-endotoxin CryIA(c). The plants are subsequently infected with Nilaparvata lugens larvae of the second and third stage. The test is evaluated after 6 days.

[8] = comparison arm for CryIIIA cotton
[9] = comparison arm for CryIa(c) cotton
[10] = pot (A) rice plants expressing δ-endotoxin CryIa(b)
[11] = pot (A) rice plants expressing δ-endotoxin CryIa(c)

Structure (SMILES): CN1COCN(Cc2cnc(Cl)s2)/C1=N\[N+](=O)[O-] [thiamethoxam, 5-(2-Chlorthiazol-5-ylmethyl)-3-methyl-4-nitroimino-perhydro-1,3,5-oxadiazin]
- control of the tested insects (percentage reduction in population or feeding damage, % action) ([1]; non-transgenic cotton treated with compound and conventional CryIIIA-toxin, each 100, 50, 10, 5, 1 ppm, comparison arm for CryIIIA cotton): insufficient
- control of the tested insects (percentage reduction in population or feeding damage, % action) ([1]; transgenic cotton expressing δ-endotoxin CryIIIA, spray 100, 50, 10, 5, 1 ppm, evaluation 3 to 10 days, compared with non-transgenic plant): superior
- control (percentage reduction in population, % action) ([2]; plot (a) maize cv. KnockOut, spray 200, 100, 50, 10, 5, 1 ppm, natural infestation): Improved control
- control level ([2]; plot (b) conventional maize, compound 200, 100, 50, 10, 5, 1 ppm, then same ppm of the endotoxin expressed by KnockOut): ≤ 60%
- control of the tested insects (percentage reduction in population or feeding damage, % action) [3, 8]: insufficient
- control of the tested insects (percentage reduction in population or feeding damage, % action) [3, 9]: insufficient
- control of the tested insects (percentage reduction in population or feeding damage, % action) [4, 8]: insufficient
- control of the tested insects (percentage reduction in population or feeding damage, % action) [4, 9]: insufficient
- control (percentage reduction in population, % action) ([5]; plot (a) maize seedlings cv. KnockOut, spray 400 ppm, larvae in the second stage): Improved control
- control level ([5]; plot (b) conventional maize, 400 ppm compound, then 400 ppm of the endotoxin expressed by KnockOut): ≤ 60%
- control (percentage reduction in population, % action) [6, 10]: Improved control
- control (percentage reduction in population, % action) [6, 11]: Improved control
- control level ([6]; 400 ppm compound and 400 ppm δ-endotoxin CryI(b)): ≤ 60%
- control level ([6]; 400 ppm compound and 400 ppm δ-endotoxin CryI(c)): ≤ 60%
- control (percentage reduction in population, % action) [7, 10]: Improved control
- control (percentage reduction in population, % action) [7, 11]: Improved control
- control level ([7]; 400 ppm compound and 400 ppm δ-endotoxin CryIA(b)): ≤ 60%
- control level ([7]; 400 ppm compound and 400 ppm δ-endotoxin CryIA(c)): ≤ 60%
